In PubChem BioAssay (NCI):
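96-well plates; 48 h exposure; 5 concentrations. Endpoints by linear interpolation between flanking doses. Not reached: highest tested concentration assigned. TGI: total growth inhibition.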

Experiments:
Experiment in all cases: growth of human tumour cells (NCI), 48 h
PC-3 prostate = system: PC-3 prostate
HCT-15 colon = system: HCT-15 colon
MALME-3M melanoma = system: MALME-3M melanoma
HS 578T breast = system: HS 578T breast
IGROV1 ovarian = system: IGROV1 ovarian
U251 CNS = system: U251 CNS
MDA-N = system: MDA-N
SR leukemia = system: SR leukemia
HOP-92 NSCLC = system: HOP-92 NSCLC
HT29 colon = system: HT29 colon
NCI/ADR-RES ovarian = system: NCI/ADR-RES ovarian
SNB-75 CNS = system: SNB-75 CNS
DU-145 prostate = system: DU-145 prostate
NCI-H23 lung = system: NCI-H23 lung
MOLT-4 leukemia = system: MOLT-4 leukemia
OVCAR-5 ovarian = system: OVCAR-5 ovarian
CAKI-1 renal = system: CAKI-1 renal
HCC-2998 colon = system: HCC-2998 colon

NC(=O)CCC(NC(=O)c1cccc2c(=O)c3ccccc3[nH]c12)C(=O)O (stereo not drawn)
TGI (PC-3 prostate): > 100 µM
TGI (HCT-15 colon): > 100 µM
TGI (MALME-3M melanoma): > 100 µM
TGI (HS 578T breast): > 100 µM
TGI (IGROV1 ovarian): > 100 µM
TGI (U251 CNS): > 100 µM
TGI (MDA-N): > 100 µM
TGI (SR leukemia): > 100 µM
TGI (HOP-92 NSCLC): > 100 µM
TGI (HT29 colon): > 100 µM
TGI (NCI/ADR-RES ovarian): > 100 µM
TGI (SNB-75 CNS): > 100 µM
TGI (DU-145 prostate): > 100 µM
TGI (NCI-H23 lung): > 100 µM
TGI (MOLT-4 leukemia): > 100 µM
TGI (OVCAR-5 ovarian): > 100 µM

Cc1nc2c(Cl)cc(Cl)cc2c(Cl)c1CCCl
TGI (PC-3 prostate): > 100 µM
TGI (HCT-15 colon): > 100 µM
TGI (MALME-3M melanoma): > 100 µM
TGI (HS 578T breast): > 100 µM
TGI (IGROV1 ovarian): > 100 µM
TGI (U251 CNS): > 100 µM
TGI (MDA-N): > 100 µM
TGI (SR leukemia): > 100 µM
TGI (HT29 colon): > 100 µM
TGI (CAKI-1 renal): > 100 µM
TGI (NCI/ADR-RES ovarian): > 100 µM
TGI (SNB-75 CNS): > 100 µM
TGI (DU-145 prostate): > 100 µM
TGI (NCI-H23 lung): > 100 µM
TGI (MOLT-4 leukemia): > 100 µM
TGI (OVCAR-5 ovarian): > 100 µM
TGI (HCC-2998 colon): > 100 µM

O=S(=O)(O)c1cc(Nc2ccnc3ccccc23)c2c(S(=O)(=O)O)cc(S(=O)(=O)O)cc2c1
TGI (PC-3 prostate): > 100 µM
TGI (HCT-15 colon): > 100 µM
TGI (MALME-3M melanoma): > 100 µM
TGI (HS 578T breast): > 100 µM
TGI (IGROV1 ovarian): > 100 µM
TGI (U251 CNS): > 100 µM
TGI (MDA-N): > 100 µM
TGI (HT29 colon): > 100 µM
TGI (CAKI-1 renal): > 100 µM
TGI (NCI/ADR-RES ovarian): > 100 µM
TGI (SNB-75 CNS): > 100 µM
TGI (DU-145 prostate): > 100 µM
TGI (NCI-H23 lung): > 100 µM
TGI (MOLT-4 leukemia): > 100 µM
TGI (OVCAR-5 ovarian): > 100 µM
TGI (HCC-2998 colon): > 100 µM

COc1cc(O)c2c(=O)c(OC)c(-c3ccc4c(c3)OCO4)oc2c1OC
TGI (PC-3 prostate): > 50 µM
TGI (HCT-15 colon): > 50 µM
TGI (MALME-3M melanoma): > 50 µM
TGI (HS 578T breast): > 50 µM
TGI (IGROV1 ovarian): > 50 µM
TGI (U251 CNS): > 50 µM
TGI (MDA-N): > 50 µM
TGI (HOP-92 NSCLC): 44.2 µM
TGI (HT29 colon): > 50 µM
TGI (CAKI-1 renal): > 50 µM
TGI (NCI/ADR-RES ovarian): > 50 µM
TGI (SNB-75 CNS): 31.9 µM
TGI (DU-145 prostate): > 50 µM
TGI (NCI-H23 lung): > 50 µM
TGI (MOLT-4 leukemia): > 50 µM
TGI (OVCAR-5 ovarian): > 50 µM
TGI (HCC-2998 colon): > 50 µM

O=C(Cc1ccccc1)N=Nc1c(O)[nH]c2ccccc12
TGI (PC-3 prostate): > 100 µM
TGI (HCT-15 colon): > 100 µM
TGI (MALME-3M melanoma): > 100 µM
TGI (HS 578T breast): > 100 µM
TGI (IGROV1 ovarian): > 100 µM
TGI (U251 CNS): > 100 µM
TGI (MDA-N): > 100 µM
TGI (SR leukemia): > 100 µM
TGI (HT29 colon): > 100 µM
TGI (NCI/ADR-RES ovarian): > 100 µM
TGI (SNB-75 CNS): > 100 µM
TGI (DU-145 prostate): > 100 µM
TGI (NCI-H23 lung): > 100 µM
TGI (MOLT-4 leukemia): > 100 µM
TGI (OVCAR-5 ovarian): > 100 µM
TGI (HCC-2998 colon): > 100 µM

COc1nc2ccc(CNc3ccc(C(=O)O)cc3)cc2nc1OC
TGI (PC-3 prostate): > 10 µM
TGI (HCT-15 colon): > 10 µM
TGI (MALME-3M melanoma): > 10 µM
TGI (HS 578T breast): > 10 µM
TGI (IGROV1 ovarian): > 10 µM
TGI (U251 CNS): > 10 µM
TGI (MDA-N): > 10 µM
TGI (HT29 colon): > 10 µM
TGI (CAKI-1 renal): > 10 µM
TGI (NCI/ADR-RES ovarian): > 10 µM
TGI (SNB-75 CNS): > 10 µM
TGI (DU-145 prostate): > 10 µM
TGI (NCI-H23 lung): > 10 µM
TGI (MOLT-4 leukemia): > 10 µM
TGI (OVCAR-5 ovarian): > 10 µM
TGI (HCC-2998 colon): > 10 µM

COC(=O)c1c(O)ccc2c1c1c(n2Cc2ccccc2OC)C(=O)c2ccccc2C1
TGI (PC-3 prostate): 78.8 µM
TGI (HCT-15 colon): > 100 µM
TGI (MALME-3M melanoma): > 100 µM
TGI (HS 578T breast): > 100 µM
TGI (IGROV1 ovarian): > 100 µM
TGI (U251 CNS): > 100 µM
TGI (MDA-N): > 100 µM
TGI (SR leukemia): > 100 µM
TGI (HT29 colon): > 100 µM
TGI (CAKI-1 renal): > 100 µM
TGI (NCI/ADR-RES ovarian): > 100 µM
TGI (SNB-75 CNS): > 100 µM
TGI (DU-145 prostate): > 100 µM
TGI (NCI-H23 lung): > 100 µM
TGI (MOLT-4 leukemia): > 100 µM

S=c1nc2sc3c(c2c(Nc2ccc(Br)cc2)[nH]1)CCN(N1CCc2c(sc4nc(=S)[nH]c(Nc5ccc(Br)cc5)c24)C1)C3
TGI (PC-3 prostate): > 50 µM
TGI (HCT-15 colon): > 50 µM
TGI (MALME-3M melanoma): > 50 µM
TGI (HS 578T breast): > 50 µM
TGI (IGROV1 ovarian): > 50 µM
TGI (U251 CNS): 19 µM
TGI (MDA-N): 44.2 µM
TGI (SR leukemia): > 50 µM
TGI (HT29 colon): > 50 µM
TGI (CAKI-1 renal): > 50 µM
TGI (NCI/ADR-RES ovarian): > 50 µM
TGI (SNB-75 CNS): > 50 µM
TGI (DU-145 prostate): > 50 µM
TGI (NCI-H23 lung): > 50 µM
TGI (MOLT-4 leukemia): > 50 µM
TGI (OVCAR-5 ovarian): > 50 µM
TGI (HCC-2998 colon): > 50 µM

CCOC(=O)c1cn(CC)c2cc3c(cc2c1=O)CCS3(=O)=O
TGI (PC-3 prostate): > 100 µM
TGI (HCT-15 colon): > 100 µM
TGI (MALME-3M melanoma): > 100 µM
TGI (HS 578T breast): > 100 µM
TGI (IGROV1 ovarian): > 100 µM
TGI (U251 CNS): > 100 µM
TGI (MDA-N): > 100 µM
TGI (SR leukemia): > 100 µM
TGI (HOP-92 NSCLC): > 100 µM
TGI (HT29 colon): > 100 µM
TGI (NCI/ADR-RES ovarian): > 100 µM
TGI (DU-145 prostate): > 100 µM
TGI (NCI-H23 lung): > 100 µM
TGI (MOLT-4 leukemia): > 100 µM
TGI (OVCAR-5 ovarian): > 100 µM
TGI (HCC-2998 colon): > 100 µM

Clc1cc(OCC23CC4CC(CC(C4)C2)C3)nc(OCC23CC4CC(CC(C4)C2)C3)n1
TGI (PC-3 prostate): > 100 µM
TGI (HCT-15 colon): > 100 µM
TGI (MALME-3M melanoma): > 100 µM
TGI (HS 578T breast): > 100 µM
TGI (IGROV1 ovarian): > 100 µM
TGI (U251 CNS): > 100 µM
TGI (MDA-N): > 100 µM
TGI (SR leukemia): > 100 µM
TGI (HT29 colon): > 100 µM
TGI (CAKI-1 renal): > 100 µM
TGI (NCI/ADR-RES ovarian): > 100 µM
TGI (SNB-75 CNS): > 100 µM
TGI (DU-145 prostate): > 100 µM
TGI (NCI-H23 lung): > 100 µM
TGI (MOLT-4 leukemia): > 100 µM
TGI (OVCAR-5 ovarian): > 100 µM
TGI (HCC-2998 colon): > 100 µM
